Test results reported in US8916577B2, “Tricyclic derivatives, process for their preparation and their use as kinase inhibitors” (Nerviano Medical Sciences S.R.L., priority 2011, dated 2014).
pIC50: −log10 of the molar value. Counter-ions that a name gives are not always drawn.

Experiments:
[1] = target: PIM-1 (Homo sapiens (Human), UniProt P11309); experiment: Biochemical assay for inhibitors of PIM-1 kinase activity (33P-ATP trans-phosphorylation, Dowex); conditions: 1 nM enzyme, 200 microM ATP, Aktide 25 microM
Protocol: Biochemical Assay for Inhibitors of PIM-1 Kinase Activity
(§1) The inhibitory activity of putative kinase inhibitors and the potency of selected compounds were determined using a trans-phosphorylation assay.
(§2) Specific peptide or protein substrates are trans-phosphorylated by their specific ser-thr or tyr kinase in the presence of ATP traced with ^33P-γ-ATP, and in the presence of their own optimal buffer and cofactors.
(§3) At the end of the phosphorylation reaction, more than 98% unlabeled ATP and radioactive ATP is captured by an excess of the ion exchange dowex resin; the resin then settles down to the bottom of the reaction plate by gravity.
Supernatant is subsequently withdrawn and transferred into a counting plate, then evaluated by (3-counting.
The buffer for PIM-1 assay was composed of HEPES 50 mM, at pH 7.5, with 10 mM MgCl2, 1 mM DTT, 3 microM NaVO3, and 0.2 mg/mL BSA
Full-length human PIM-1 was expressed and purified as described in Bullock A N, et al., J. Biol. Chem. 2005, 280, 41675-82.
1.7 microM PIM1 was incubated 1 hour RT at 28° C. in the presence of 125 microM ATP
ATP concentration: 200 microM
Enzyme concentration: 1 nM
Substrate concentration Aktide (Chemical Abstract Service Registry Number 324029-01-8): 25 microM
(§4) The test mix consisted of:
(§5) 1) 3× Enzyme mix (done in Kinase Buffer 3×), 5 microL/well
(§6) 2) 3× substrate and ATP mix (done in ddH2O), together with ^33P-γ-ATP, 5 microL/well
(§7) 3) 3× test compounds (diluted into ddH2O—3% DMSO)—5 microL/well
For IC50 determination, test compounds are received as a 1 mM solution in 100% DMSO and distributed into 96-well plates: compounds are then plated into the first column of a new 96-well plate (A1 to G1), 100 microL/well.
An automated station (Biomek FX, Beckman) is used for serial dilutions, producing 1:3 dilutions in 100% DMSO, from line A1 to A10, for all the compounds in the column. […]
Data are analyzed by an internally customized version of the “Assay Explorer” SW package, which provides sigmoidal fitting of the ten-dilution curves for IC50 determination in secondary assay/hit confirmation routines.

[2] = target: MPS1 (Homo sapiens (Human), UniProt P33981); experiment: Biochemical assay for inhibitors of MPS1 kinase activity (33P-ATP trans-phosphorylation, Dowex); conditions: 5 nM MPS1, 15 microM ATP, P38-β-tide 200 microM
From the text: Cloning, Expression and Purification of Recombinant MPS1 Full Length Protein.
MPS1 full length (corresponding to residues 2-857 of the full length sequence, see Swiss-Prot accession number P33981) was PCR amplified from the full-length human MPS1 gene present in house as clone pGEX4t_MPS1.
Baculoviruses were generated by cotransfecting Sf9 insect cells with the expression vector and the viral DNA using the BaculoGold® transfection kit (Pharmingen). Viral supernatant was recovered after 5 days and subjected to 3 rounds of amplification to increase viral titer. Recombinant protein was produced by infecting High5 insect cells. After 72 hours of infection at 21° C., cells were recovered, pelletted and freezed at −80° C. For purification of recombinant protein, pellet was thawed, resuspended in lysis buffer (PBS, NaCl 150 mM, Glycerol 10%, CHAPS 0.1%, DTT 20 mM, protease and phosphatase inhibitors) and lysed by Gaulin. Lysate was cleared by centrifugation and loaded on a GST affinity column. After extensive wash, recombinant protein was cleaved by a specific protease and eluted by incubation.
To get a fully activated enzyme, the protein was then subjected to auto-phosphorylation in presence of ATP 1 mM at 25° C. for 2 hours in kinase buffer (Hepes pH7.5 50 mM, MgCl2 2.5 mM, MnCl2 1 mM, DTT 1 mM, phosphatase inhibitors); ATP was then removed whit a desalting column.
Biochemical Assay for Inhibitors of MPS1 Kinase Activity
as §1, §2, §3
Supernatant is subsequently withdrawn and transferred into a counting plate, then evaluated by P-counting.
The buffer for MPS1 assay was composed of HEPES 50 mM, at pH 7.5, with 2.5 mM MgCl2, 1 mM MnCl2, 1 mM DTT, 3 microM Na3VO4, 2 mM P-glycerophosphate and 0.2 mg/mL BSA.
The assay was run with a final concentration MPS1 of 5 nM, in the presence of 15 microM ATP and 1.5 nM ^33P-γ-ATP; the substrate was P38-β-tide, used at 200 microM.
as §4, §5, §6, §7
a) for percent inhibition studies (HTS), individual dilution plates at 1 mM are diluted at a 3× concentration (30 microM) in ddH2O (3% DMSO=final concentration) using a Beckman NX automated pipetting platform. The same instrument is used for distributing the diluted mother plates into the test plates. b) for IC50 determination (KSS platform), 100 μl of each compound at 1 mM in 100% DMSO are transferred from the original plate into the first column of another 96 well plate (A1 to G1); well H1 is left empty for the internal standard inhibitor, usually staurosporine.
An automated station for serial dilutions (Biomek FX, Beckman) is used for producing 1:3 dilutions in 100% DMSO, from line A1 to A10, and for all the seven compounds in the column. Moreover, 4-5 copies of daughter plates are prepared by reformatting 5 microL of this first set of 100% DMSO dilution plates into 384 deep well-plates: one copy of the daughter plates with the serial dilutions of test compounds will be thaw the day of the experiments, reconstituted at a 3× concentration with water and used in the IC50 determination assays. In a standard experiment, the highest concentration (3×) of all compounds is 30 microM, while the lowest one is 1.5 nM. […]

[3] = target: PIM-2 (Homo sapiens (Human), UniProt Q9P1W9); experiment: PIM-2 kinase inhibition assay: Dowex technique; type: biochemical; conditions: 1.5 nM enzyme, 4 microM ATP, Aktide 5 microM
Protocol: Method for PIM-2 Kinase Inhibition Assay: Dowex Technique
The buffer for PIM-2 assay was composed of HEPES 50 mM, at pH 7.5, with 1 mM MgCl2, 1 mM DTT, 3 microM Na3VO4, and 0.2 mg/mL BSA
Full-length human PIM-2 was expressed and purified as described in Fedorov O, et al., PNAS 2007 104, 51, 20523-28.
Enzyme concentration=1.5 nM
Aktide substrate (Chemical Abstract Service Registry Number 324029-01-8)=5 microM
See above: same procedure as described for PIM-1.

Sequence of MPS1 (P33981 2-857): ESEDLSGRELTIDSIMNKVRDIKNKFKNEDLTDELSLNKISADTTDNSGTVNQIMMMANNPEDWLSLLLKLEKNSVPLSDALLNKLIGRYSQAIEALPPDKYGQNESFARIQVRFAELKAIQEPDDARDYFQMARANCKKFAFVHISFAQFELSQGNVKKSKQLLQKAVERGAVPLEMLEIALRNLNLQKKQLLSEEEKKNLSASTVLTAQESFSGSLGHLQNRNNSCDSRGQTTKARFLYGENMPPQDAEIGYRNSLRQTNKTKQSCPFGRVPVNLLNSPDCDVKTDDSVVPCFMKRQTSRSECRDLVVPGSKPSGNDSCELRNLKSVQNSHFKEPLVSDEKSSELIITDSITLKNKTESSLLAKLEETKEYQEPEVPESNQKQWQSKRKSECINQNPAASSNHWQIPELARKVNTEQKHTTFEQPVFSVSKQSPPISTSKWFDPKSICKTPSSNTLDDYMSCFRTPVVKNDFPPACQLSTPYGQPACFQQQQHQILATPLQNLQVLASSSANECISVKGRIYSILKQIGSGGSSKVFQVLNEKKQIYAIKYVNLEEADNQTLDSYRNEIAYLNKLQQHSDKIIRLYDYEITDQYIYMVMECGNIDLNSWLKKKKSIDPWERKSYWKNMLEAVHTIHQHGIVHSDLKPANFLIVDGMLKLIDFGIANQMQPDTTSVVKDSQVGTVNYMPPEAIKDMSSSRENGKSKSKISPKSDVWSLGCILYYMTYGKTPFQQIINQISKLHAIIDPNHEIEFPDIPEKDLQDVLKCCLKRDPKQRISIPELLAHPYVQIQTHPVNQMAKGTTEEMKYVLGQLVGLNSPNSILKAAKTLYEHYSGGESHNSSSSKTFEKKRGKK
Sequence of PIM-2 (Q9P1W9 whole entry): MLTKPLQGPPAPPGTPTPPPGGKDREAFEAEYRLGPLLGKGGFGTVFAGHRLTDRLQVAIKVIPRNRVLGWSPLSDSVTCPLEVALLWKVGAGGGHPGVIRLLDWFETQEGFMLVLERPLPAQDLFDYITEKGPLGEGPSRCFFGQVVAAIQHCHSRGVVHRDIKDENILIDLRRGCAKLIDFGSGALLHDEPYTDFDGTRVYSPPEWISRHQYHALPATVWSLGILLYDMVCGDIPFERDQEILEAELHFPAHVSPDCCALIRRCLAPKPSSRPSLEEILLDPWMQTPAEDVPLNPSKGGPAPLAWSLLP
Sequence of PIM-1 (P11309 whole entry): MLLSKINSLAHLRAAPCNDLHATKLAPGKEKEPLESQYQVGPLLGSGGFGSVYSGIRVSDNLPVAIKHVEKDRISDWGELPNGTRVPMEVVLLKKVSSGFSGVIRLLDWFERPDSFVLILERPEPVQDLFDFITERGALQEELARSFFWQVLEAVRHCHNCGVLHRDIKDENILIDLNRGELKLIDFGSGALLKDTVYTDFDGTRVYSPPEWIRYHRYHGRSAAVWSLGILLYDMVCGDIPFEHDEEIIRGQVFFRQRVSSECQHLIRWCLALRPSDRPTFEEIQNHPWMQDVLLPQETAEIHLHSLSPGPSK

| SMILES | pIC50 [1] | pIC50 [2] | pIC50 [3] |
| --- | --- | --- | --- |
| COc1cc(N2CCN(C)CC2)ccc1Nc1ncc2c(n1)-c1c(c(C(N)=O)nn1C)CCC2 [Compound 3, 9-{[2-methoxy-4-(4-methylpiperazin-1-yl)phenyl]amino}-1-methyl-1,4,5,6-tetrahydropyrazolo[4′,3′:6,7]cyclohepta[1,2-d]pyrimidine-3-carboxamide] | 5.88 | 6.71 | 5.23 |
| CN1CCN(c2ccc(Nc3ncc4c(n3)-c3c(c(C(N)=O)nn3C)CCC4)cc2)CC1 [Compound 67, 1-methyl-9-{[4-(4-methylpiperazin-1-yl)phenyl]amino}-1,4,5,6-tetrahydropyrazolo[4′,3′:6,7]cyclohepta[1,2-d]pyrimidine-3-carboxamide trifluoroacetate] | 5.61 | 5.92 | 5.44 |
| COc1cc(C(=O)NC2CCN(C)CC2)ccc1Nc1ncc2c(n1)-c1c(c(C(=O)N[C@H](CN)c3ccccc3)nn1C)CCC2 [Compound 5, N-[(1S)-2-amino-1-phenylethyl]-9-({2-methoxy-4-[(1-methylpiperidin-4-yl)carbamoyl]phenyl}amino)-1-methyl-1,4,5,6-tetrahydropyrazolo[4′,3′:6,7]cyclohepta[1,2-d]pyrimidine-3-carboxamide dihydrochloride] | 6.30 | 6.33 | 5.42 |
